# Measured values reported in patent US20160281050A1, “METHODS FOR TREATING A CULTURE OF HAEMATOCOCCUS PLUVIALIS FOR CONTAMINATION USING SALT AND HYDROGEN PEROXIDE” (HELIAE DEVELOPMENT LLC, priority 2015, published 2016).
# Tested on: Haematococcus pluvialis (Strain 2)
# Assay: % cell lysis, culture dry weight and % carotenoid by UV method in 230 L reactors, salt treatment (Example 12)
# Assay type: cell-based
# Protocol: This test was done side by side in flasks (0.1 L) and in reactors located in a greenhouse operating in conditions: reactor volume of 230 L; Daily PAR of 20 mol m^−2 d^−1; pH (not measured); and paddlewheel speed of 21 RPM. […] The flask cultures were mixed by shaking at 140 rpm and received 300-400 μmol/m^2 s of photosynthetically active radiation (PAR) in 12 hour light cycles and constant supply of 2.5% CO2. The motility of the culture was monitored by visual observation under a microscope. […] Nine 230 L reactors were also seeded with culture from bioreactor #2410 on the same day as the flasks and brought to 2 ppt concentration of salt. Once motility of the cells was reduced to <10% (day 3 of culture for flasks and day 2 for 230 L reactors) the level of salt was elevated to a point between 4-18 ppt and compared to the culture in two reactors remaining at 2 ppt salt. Flasks and 230 L reactors were monitored for percentage of cell lysis via visual observation under a microscope, culture dry weight (biomass accumulation in g/L), and percentage of chytrid infection via visual observation under a microscope. Carotenoid production, a proxy for determining astaxanthin, was quantified every other day of culture in the 230 L reactors using the UV method.
smiles,measurement,setting,value
"[Cl-].[Na+] [NaCl, sodium chloride]",Culture Dry Weight in 230L reactors,"NaCl 2 ppt (1st 2 ppt column), time 12 d",0.187 g/L
same,Culture Dry Weight in 230L reactors,"NaCl 2 ppt, time 0 d",0.043 g/L
same,Culture Dry Weight in 230L reactors,"NaCl 2 ppt, time 1 d",0.048 g/L
same,Culture Dry Weight in 230L reactors,"NaCl 2 ppt, time 2 d",0.072 g/L
same,Culture Dry Weight in 230L reactors,"NaCl 2 ppt, time 4 d",0.113 g/L
same,Culture Dry Weight in 230L reactors,"NaCl 2 ppt, time 5 d",0.125 g/L
same,Culture Dry Weight in 230L reactors,"NaCl 2 ppt, time 6 d",0.130 g/L
same,Culture Dry Weight in 230L reactors,"NaCl 2 ppt, time 7 d",0.150 g/L
same,Culture Dry Weight in 230L reactors,"NaCl 2 ppt, time 8 d",0.170 g/L
same,Culture Dry Weight in 230L reactors,"NaCl 2 ppt, time 9 d",0.218 g/L
same,Culture Dry Weight in 230L reactors,"NaCl 2 ppt, time 10 d",0.150 g/L
same,Culture Dry Weight in 230L reactors,"NaCl 4 ppt, time 0 d",0.037 g/L
same,Culture Dry Weight in 230L reactors,"NaCl 4 ppt, time 1 d",0.063 g/L
same,Culture Dry Weight in 230L reactors,"NaCl 4 ppt, time 2 d",0.080 g/L
same,Culture Dry Weight in 230L reactors,"NaCl 4 ppt, time 4 d",0.115 g/L
same,Culture Dry Weight in 230L reactors,"NaCl 4 ppt, time 5 d",0.120 g/L
same,Culture Dry Weight in 230L reactors,"NaCl 4 ppt, time 6 d",0.125 g/L
same,Culture Dry Weight in 230L reactors,"NaCl 4 ppt, time 7 d",0.148 g/L
same,Culture Dry Weight in 230L reactors,"NaCl 4 ppt, time 8 d",0.153 g/L
same,Culture Dry Weight in 230L reactors,"NaCl 4 ppt, time 9 d",0.198 g/L
same,Culture Dry Weight in 230L reactors,"NaCl 4 ppt, time 10 d",0.143 g/L
same,Culture Dry Weight in 230L reactors,"NaCl 4 ppt, time 11 d",0.148 g/L
same,Culture Dry Weight in 230L reactors,"NaCl 4 ppt, time 12 d",0.150 g/L
same,Culture Dry Weight in 230L reactors,"NaCl 5 ppt, time 0 d",0.040 g/L
same,Culture Dry Weight in 230L reactors,"NaCl 5 ppt, time 1 d",0.070 g/L
same,Culture Dry Weight in 230L reactors,"NaCl 5 ppt, time 4 d",0.162 g/L
same,Culture Dry Weight in 230L reactors,"NaCl 5 ppt, time 5 d",0.185 g/L
same,Culture Dry Weight in 230L reactors,"NaCl 5 ppt, time 6 d",0.213 g/L
same,Culture Dry Weight in 230L reactors,"NaCl 5 ppt, time 7 d",0.223 g/L
same,Culture Dry Weight in 230L reactors,"NaCl 5 ppt, time 8 d",0.270 g/L
same,Culture Dry Weight in 230L reactors,"NaCl 5 ppt, time 9 d",0.293 g/L
same,Culture Dry Weight in 230L reactors,"NaCl 5 ppt, time 10 d",0.265 g/L
same,Culture Dry Weight in 230L reactors,"NaCl 5 ppt, time 11 d",0.250 g/L
same,Culture Dry Weight in 230L reactors,"NaCl 5 ppt, time 12 d",0.280 g/L
same,Culture Dry Weight in 230L reactors,"NaCl 6 ppt, time 0 d",0.040 g/L
same,Culture Dry Weight in 230L reactors,"NaCl 6 ppt, time 1 d",0.058 g/L
same,Culture Dry Weight in 230L reactors,"NaCl 6 ppt, time 4 d",0.140 g/L
same,Culture Dry Weight in 230L reactors,"NaCl 6 ppt, time 5 d",0.178 g/L
same,Culture Dry Weight in 230L reactors,"NaCl 6 ppt, time 6 d",0.198 g/L
same,Culture Dry Weight in 230L reactors,"NaCl 6 ppt, time 7 d",0.218 g/L
same,Culture Dry Weight in 230L reactors,"NaCl 6 ppt, time 8 d",0.260 g/L
same,Culture Dry Weight in 230L reactors,"NaCl 6 ppt, time 9 d",0.260 g/L
same,Culture Dry Weight in 230L reactors,"NaCl 6 ppt, time 10 d",0.250 g/L
same,Culture Dry Weight in 230L reactors,"NaCl 6 ppt, time 11 d",0.282 g/L
same,Culture Dry Weight in 230L reactors,"NaCl 6 ppt, time 12 d",0.323 g/L
same,Culture Dry Weight in 230L reactors,"NaCl 7 ppt, time 0 d",0.035 g/L
same,Culture Dry Weight in 230L reactors,"NaCl 7 ppt, time 1 d",0.048 g/L
same,Culture Dry Weight in 230L reactors,"NaCl 7 ppt, time 4 d",0.145 g/L
same,Culture Dry Weight in 230L reactors,"NaCl 7 ppt, time 5 d",0.150 g/L
same,Culture Dry Weight in 230L reactors,"NaCl 7 ppt, time 6 d",0.170 g/L
same,Culture Dry Weight in 230L reactors,"NaCl 7 ppt, time 7 d",0.198 g/L
same,Culture Dry Weight in 230L reactors,"NaCl 7 ppt, time 8 d",0.260 g/L
same,Culture Dry Weight in 230L reactors,"NaCl 7 ppt, time 9 d",0.148 g/L
same,Culture Dry Weight in 230L reactors,"NaCl 7 ppt, time 10 d",0.205 g/L
same,Culture Dry Weight in 230L reactors,"NaCl 7 ppt, time 11 d",0.218 g/L
same,Culture Dry Weight in 230L reactors,"NaCl 7 ppt, time 12 d",0.245 g/L
same,Culture Dry Weight in 230L reactors,"NaCl 8 ppt, time 0 d",0.018 g/L
same,Culture Dry Weight in 230L reactors,"NaCl 8 ppt, time 1 d",0.057 g/L
same,Culture Dry Weight in 230L reactors,"NaCl 8 ppt, time 4 d",0.145 g/L
same,Culture Dry Weight in 230L reactors,"NaCl 8 ppt, time 5 d",0.168 g/L
same,Culture Dry Weight in 230L reactors,"NaCl 8 ppt, time 6 d",0.193 g/L
same,Culture Dry Weight in 230L reactors,"NaCl 8 ppt, time 7 d",0.205 g/L
same,Culture Dry Weight in 230L reactors,"NaCl 8 ppt, time 8 d",0.237 g/L
same,Culture Dry Weight in 230L reactors,"NaCl 8 ppt, time 9 d",0.218 g/L
same,Culture Dry Weight in 230L reactors,"NaCl 8 ppt, time 10 d",0.257 g/L
same,Culture Dry Weight in 230L reactors,"NaCl 8 ppt, time 11 d",0.220 g/L
same,Culture Dry Weight in 230L reactors,"NaCl 8 ppt, time 12 d",0.263 g/L
same,Culture Dry Weight in 230L reactors,"NaCl 10 ppt, time 0 d",0.045 g/L
same,Culture Dry Weight in 230L reactors,"NaCl 10 ppt, time 1 d",0.060 g/L
same,Culture Dry Weight in 230L reactors,"NaCl 10 ppt, time 4 d",0.120 g/L
same,Culture Dry Weight in 230L reactors,"NaCl 10 ppt, time 5 d",0.130 g/L
same,Culture Dry Weight in 230L reactors,"NaCl 10 ppt, time 6 d",0.168 g/L
same,Culture Dry Weight in 230L reactors,"NaCl 10 ppt, time 7 d",0.145 g/L
same,Culture Dry Weight in 230L reactors,"NaCl 10 ppt, time 8 d",0.145 g/L
same,Culture Dry Weight in 230L reactors,"NaCl 10 ppt, time 9 d",0.160 g/L
same,Culture Dry Weight in 230L reactors,"NaCl 10 ppt, time 10 d",0.173 g/L
same,Culture Dry Weight in 230L reactors,"NaCl 10 ppt, time 11 d",0.145 g/L
same,Culture Dry Weight in 230L reactors,"NaCl 10 ppt, time 12 d",0.168 g/L
same,Culture Dry Weight in 230L reactors,"NaCl 18 ppt, time 0 d",0.035 g/L
same,Culture Dry Weight in 230L reactors,"NaCl 18 ppt, time 1 d",0.052 g/L
same,Culture Dry Weight in 230L reactors,"NaCl 18 ppt, time 4 d",0.135 g/L
same,Culture Dry Weight in 230L reactors,"NaCl 18 ppt, time 5 d",0.173 g/L
same,Culture Dry Weight in 230L reactors,"NaCl 18 ppt, time 6 d",0.180 g/L
same,Culture Dry Weight in 230L reactors,"NaCl 18 ppt, time 7 d",0.165 g/L
same,Culture Dry Weight in 230L reactors,"NaCl 18 ppt, time 8 d",0.165 g/L
same,Culture Dry Weight in 230L reactors,"NaCl 18 ppt, time 9 d",0.175 g/L
same,Culture Dry Weight in 230L reactors,"NaCl 18 ppt, time 10 d",0.183 g/L
same,Culture Dry Weight in 230L reactors,"NaCl 18 ppt, time 11 d",0.200 g/L
same,Culture Dry Weight in 230L reactors,"NaCl 18 ppt, time 12 d",0.175 g/L
